Cc1onc(-c2c(Cl)cccc2Cl)c1C(=O)N[C@@H]1C(=O)N2[C@@H]1SC(C)(C)[C@@H]2C(=O)[O-].O.[Na+]
solubility (mole fraction)
Conditions	288.15 K	293.15 K	298.15 K	303.15 K	308.15 K	313.15 K	318.15 K
in acetone	0.000605	0.000795	0.00101	0.00128	0.00161	0.00198	0.00244
in acetonitrile	0.000144	0.000155	0.000174	0.000184	0.000209	0.000221	0.000246
in ethanol	0.00146	0.00167	0.00187	0.00211	0.00237	0.00267	0.00292
in ethyl acetate	0.000548	0.000686	0.000843	0.001	0.00123	0.00149	0.00178
in isopropanol	0.000409	0.000524	0.000618	0.000683	0.000854	0.000958	0.00118
in methanol	0.0418	0.0476	0.0536	0.06	0.0657	0.0768	0.0853

From BigSolDB 2.1
